Test results as given in patent US8802240B2, “Uses of formulations of thyroid hormone analogs and nanoparticulate forms thereof to increase chemosensitivity and radiosensitivity in tumor or cancer cells” (Nanopharmaceuticals LLC, priority 2011, dated 2014).

What was measured:
[1] = tested on: GL261 murine brain tumor cells; test: GL261 growth curve, colony forming efficiency and cell size; assay type: cell-based
Method: 1×10^5 cells per 25 cm^2 flask at time zero (density 40 cells/mm^2). Three flasks were utilized at each time period. The medium in the flasks was not changed over the duration of the growth curve (unfed cultures). Data were taken daily from day zero to day 11.5 post-seeding and cell numbers, age distributions, and apoptotic percentages were determined. After growth curve shapes (without and with 2 μM Tetrac) were determined, irradiation times at 70 and 270 hour post-seeding were chosen.
To obtain exponential and plateau phase cell numbers, we trypsinized ([…] trypsin-EDTA) cells for 5 min at 37° C.
For determination of CCDTs, the cell numbers per flask were determined on a daily basis. A four-day interval in the exponential region of growth to obtain the CCDTs, yielding a total of 12 estimations for analysis was utilized. A regression analysis was performed using the (log) of the cell number versus the linear time in days (SigmaPlot, V. 10, Systat Software, Inc., Point Richmond, Calif.). The log slope value and its standard error (SE) were determined, and the SE was converted to the 95% confidence limits using a two-tailed t-table at N−1 degrees of freedom where N is the number of samples. (See Goldstein, A. In: Biostatistics, New York, The MacMillan Co., 1964, p. 140-146).

[2] = tested on: SKN-SH, SaOS2 and MCF7 cells, drug-sensitive and -resistant; test: MTT cell viability of drug-sensitive and drug-resistant cancer cells; assay type: cell-based; details: 4 days
Method: Drug-sensitive and -resistant SKN-SH (FIGS. 13C-D), SaOS2 (FIGS. 13A-B), and MCF7 (FIGS. 13E-F) cells were subjected to treatment with increasing concentrations of Tetrac or Doxirubicin over a period of 4 days. Cell viability was then measured by MTT assay. The data represent the average of 4 determinations±SE.
Doxorubicin resistant SKN-SH/R, MCF7/R and SaOS2/R cells were subjected to treatment with Tetrac either alone or in combination with each of doxorubicin (Dox), etoposide (Etop), cisplatin (Cisp), or trichostatin A (TSA) at the indicated concentrations, After 4 days in cell viability was determined by the MTT assay and the data represented as average of 3 determinations±SE.

GL261 cells = test: GL261 potentially lethal damage repair (PLDR); assay type: cell-based, murine
Method: PLDR was also measured using the 10% survival level in both control and Tetrac treated-cells, and was also done for both exponentially growing and plateau phase cells. The total 10% survival dose was given, and then cells were placed back into the 37° C. incubator for various periods of time. At 0, 0.5, 1.0, 1.5, 2.0, 3.0, 4.0, 6.0, 8.0, and 10.0 hours, flasks were removed, and processed for survival assessment.
To investigate the effects of Tetrac on SLDR and PLDR, cells were chosen that had been given a one-hour treatment with Tetrac at two different times, i.e., at 70 and 270 hours post-seeding).

[3] = tested on: GL261 murine brain tumor cells; test: GL261 clonogenic survival after single doses of 250 kVp x-rays; assay type: cell-based
Method: To irradiate 25 cm^2 flasks, an x-ray machine was used and (Philips 250 kVp Therapeutic X-ray Machine, Einhoven, […]) operated at 250 kVp and 15 mA with added filtration of 0.4 mm Thoreaus filter. The target to source distance was approximately 30 cm. Dose rates were measured using an R-meter (Victoreen R-meter, Cleveland, Ohio), and converted to absorbed (Gy) doses using appropriate temperature, pressure, and R to Gy conversion factors. The dose rate was 1 Gy per min. Flasks were irradiated at ambient temperature.
For […] analyses, survival data lying at or below 36.8% survival were analyzed by using the log fractional survival (log F×S) versus dose (D). Data were fit using linear regression analysis (SigmaPlot, V. 10, Systat Corp., Point Richmond, Calif.) to obtain the Y-intercept (or n, the extrapolation number) and the slope (1/D0), and their 95% confidence limits. (See Goldstein, A. In: Biostatistics, New York, The MacMillan Co., 1964, p. 140-146). The D0 value (Gy) is defined as the inverse of the slope, and the corrected Dq value (Gy) was then defined using the relationship: Dq(Gy)=ln n×D0(Gy) The 95% confidence limits on Dq were defined using error propagation. (See Chase, et al., In: Principles of Radioisotope Methodology. Minneapolis, Minn. Burgess Publ. Co., 1962, p. 68, 87-90). Statistics: LQ Analysis
For LQ analyses, data lying between a fractional survival of 1.00 and 0.05 were used. The fractional survival data at each dose were transformed using the relationship (−ln F×S/D) and plotted against dose (D). A regression analysis was performed to yield the LQ equation along with their 95% confidence limit values using a t-table with the appropriate (N−1) degrees of freedom. (See Goldstein, A. In: Biostatistics, New York, The MacMillan Co., 1964, p. 140-146).
To determine the Tetrac modification factor (TMF), the survival at 2 Gy obtained for control cells was divided by the survival at 2 Gy for Tetrac treated cells. The 95% confidence limits on the ratio were determined using error propagation techniques. (See Chase, et al. In: Principles of Radioisotope Methodology, Minneapolis, Minn., Burgress Publ. Co., 1962, p. 68, 87-90).

Structure (SMILES): O=C(O)Cc1cc(I)c(Oc2cc(I)c(O)c(I)c2)c(I)c1 [Tetrac, tetraiodothyroacetic acid]
- CFE (%) ([1]; exponential cells (+Tetrac), control 30.6, with feeder cells): 24.2%
- size of Tetrac-treated cells relative to control (volumetric data) ([1]; exponential phase): 1.4 times
- size of Tetrac-treated cells relative to control (volumetric data) ([1]; plateau phase): 1.9 times
- anti-proliferative activity against drug-sensitive vs drug-resistant cells (in words) ([2]; MTT): equivalent anti-proliferative activity
- cellular responses to doxorubicin, etoposide, cisplatin and TSA when combined with Tetrac (in words) ([2]; doxorubicin resistant SKN-SH/R, MCF7/R and SaOS2/R cells): significantly enhanced
- inhibition of PLDR by a factor of (GL261 cells; exponential cells): 1.9
- decrease of PLDR expression by a factor of (GL261 cells; plateau phase cells): 3.4
- sensitization of oxic and hypoxic cells (in words) ([3]; 2 μM, graded doses of 250 kVp x-rays): sensitize both oxic and hypoxic cells equally
- SF2 (fractional survival at 2 Gy) ([3]; exponential phase with Tetrac, control 32.7): 14.2 (10.8-18.8) %
- increase of the D0 value after addition of Tetrac ([3]; exponentially growing cells): 15%
- reduction of the Dq value after addition of Tetrac ([3]; exponentially growing cells): 100%
- reduction of the extrapolation number n after addition of Tetrac ([3]; exponentially growing cells): 93%
- reduction of n after addition of Tetrac ([3]; plateau phase cells): 93%
- reduction of the D0 after addition of Tetrac ([3]; plateau phase cells): 6%
- reduction of the Dq after addition of Tetrac ([3]; plateau phase cells): 100%
- SF2 (fractional survival at 2 Gy) ([3]; unfed plateau phase with Tetrac, control 20.6): 7.6%
